{"source": "patent US10736906B2", "about": "“Method to enhance tissue regeneration” (CHILDREN'S MEDICAL CENTER CORPORATION, priority 2006, dated 2020)", "test_system": "hematopoietic stem cells (HSCs)", "assay": "HSC formation in zebrafish embryos (runx1, c-myb expression), with heat-shock inducible wnt modulators", "format": "in vivo", "method": "The functional consequences of the PGE2/wnt interaction in HSC formation during embryonic development were analyzed by examining the expression of the HSC markers runx1 and c-myb. Heat shock induction of a canonical wnt ligand, wnt8, at ten somites led to enhanced HSC formation at 36 hours post fertilization (hpf; 47/54). When wnt8 induction was followed by exposure to indomethacin (10 μM, 16-36 hpf) HSC formation was reduced to or below wild-type levels ( 43/46).\nInducible negative regulators of wnt activity were used in combination with dmPGE2 treatment to functionally localize the interaction between the PG and wnt pathways. Dkk1 antagonizes the wnt pathway at the level of membrane binding and the initiation of the wnt signaling cascade. Dkk induction in hs:dkk1 transgenic embryos inhibited HSC development ( 34/49). Exposure to exogenous dmPGE2 rescued the dkk1-mediated effect on HSC formation ( 28/51, 10 μM, 16-36 hpf). Axin is a central component of the β-catenin destruction complex and thus a negative regulator of the wnt signaling cascade in the cytosolic compartment. […] Similarly, a dominant-negative form of the β-catenin transcriptional co-activator TCF abolished HSC formation ( 60/62), and no rescue was affected via dmPGE2 exposure.\nThe wnt pathway can actively enhance HSC proliferation through signaling from the HSC niche as well as within HSCs themselves. PGE2 regulates HSC formation at the level of the vascular niche as well as within the HSCs. North et al., 2007. In order to identify transcriptional programs regulated by the wnt signaling pathway, genes involved in HSC development were analyzed by qPCR.\nThe functional interaction of signaling processes in the zebrafish, down stream from PG, was explored by increasing camp production using forskolin and inhibiting PKA with H89. […] Furthermore, the rescue of dkk effects by dmPGE2 was eliminated by H89.\nHeat shock activation/repression of wnt signaling: Embryonic heat-shock experiments were conducted at 38° C. for a duration of 20 minutes unless otherwise noted. Genotype was determined by the presence of GFP fluorescence at three hours post heat-induction, non-fluorescence (wild-type) siblings were used as controls.\nIn situ hybridization: Paraformaldehyde (PFA)-fixed embryos were processed for in situ hybridization using standard zebrafish protocols such as those found on the internet at, for example, ZFIN: The Zebrafish Model Organism Database (hosted by the Univ. Oregon, Eugene, Oreg.). The following RNA probes were used to detect alterations in endodermal and liver development: GFP, LFABP, sterol carrier protein, transferrin, foxA3, insulin, trypsin, and IFABP. Changes in expression compared to wild-type controls are reported as the # altered/# scored per genotype; a minimum of three independent experiments were conducted per analysis."}
{"smiles": "COc1ccc2c(c1)c(CC(=O)O)c(C)n2C(=O)c1ccc(Cl)cc1", "note": "[indomethacin]", "values": [{"measurement": "effects of wnt8/dkk1 induction on runx1, cmyb, flk1, ephB2 expression (qPCR)", "setting": "indomethacin added to wnt8, dmPGE2 added to dkk1", "value": "could be modified"}, {"measurement": "HSC formation reduced to or below wild-type levels after wnt8 induction (# altered/# scored)", "setting": "wnt8 heat shock at ten somites, then 10 μM, 16-36 hpf", "value": "43/46"}]}
